These results are taken from patent publication US20240261418A1, “SOS1 DEGRADING AGENT AND PREPARATION METHOD THEREFOR AND APPLICATION THEREOF” (SHANGHAI LEADINGTAC PHARMACEUTICAL CO. LTD., priority 2021, published 2024).

What is called DC50 is the midpoint of the concentration-degradation curve. As usually defined, the Dmax is the largest share of the target that was removed.

The target of the test is T1, SOS1 protein (Homo sapiens, UniProt Q07889).
T1 sequence (Q07889 1-1333): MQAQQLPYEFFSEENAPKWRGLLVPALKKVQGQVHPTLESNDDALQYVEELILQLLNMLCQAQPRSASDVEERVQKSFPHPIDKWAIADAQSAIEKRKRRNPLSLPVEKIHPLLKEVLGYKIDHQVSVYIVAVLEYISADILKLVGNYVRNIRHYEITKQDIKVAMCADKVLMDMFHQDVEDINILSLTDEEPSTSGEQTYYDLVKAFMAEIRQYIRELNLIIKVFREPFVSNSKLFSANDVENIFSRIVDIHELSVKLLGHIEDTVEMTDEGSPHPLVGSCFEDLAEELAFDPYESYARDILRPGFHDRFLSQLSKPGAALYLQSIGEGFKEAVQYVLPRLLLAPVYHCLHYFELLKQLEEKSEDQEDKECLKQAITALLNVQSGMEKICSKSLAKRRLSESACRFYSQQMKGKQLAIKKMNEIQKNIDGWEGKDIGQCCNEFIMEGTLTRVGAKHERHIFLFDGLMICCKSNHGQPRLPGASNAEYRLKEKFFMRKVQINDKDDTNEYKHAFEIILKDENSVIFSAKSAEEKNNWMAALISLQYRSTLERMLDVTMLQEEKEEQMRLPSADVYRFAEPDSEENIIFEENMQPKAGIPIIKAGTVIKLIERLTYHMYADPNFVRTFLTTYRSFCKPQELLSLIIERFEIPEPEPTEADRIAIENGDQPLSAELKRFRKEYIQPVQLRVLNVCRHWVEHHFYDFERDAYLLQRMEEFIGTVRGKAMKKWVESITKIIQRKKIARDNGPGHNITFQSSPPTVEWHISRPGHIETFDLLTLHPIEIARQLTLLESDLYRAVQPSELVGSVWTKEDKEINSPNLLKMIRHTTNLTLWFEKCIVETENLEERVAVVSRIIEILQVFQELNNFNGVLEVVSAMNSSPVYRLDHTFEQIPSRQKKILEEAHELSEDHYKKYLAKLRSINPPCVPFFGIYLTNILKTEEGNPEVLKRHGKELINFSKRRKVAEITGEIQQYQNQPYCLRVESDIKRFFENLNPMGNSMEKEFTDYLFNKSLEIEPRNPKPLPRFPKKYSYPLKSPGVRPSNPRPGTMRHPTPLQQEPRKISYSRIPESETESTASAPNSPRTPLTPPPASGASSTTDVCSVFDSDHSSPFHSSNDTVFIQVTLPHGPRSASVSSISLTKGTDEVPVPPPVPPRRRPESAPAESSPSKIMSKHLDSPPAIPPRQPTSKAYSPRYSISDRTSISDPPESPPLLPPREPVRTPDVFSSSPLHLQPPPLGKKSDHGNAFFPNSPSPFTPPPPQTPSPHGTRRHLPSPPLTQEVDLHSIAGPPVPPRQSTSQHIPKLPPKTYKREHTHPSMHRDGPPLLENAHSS
As to the kind of experiment: SOS1 degradation assay (Western blot) in DLD-1 cells. Details: host or cells: NCI-H358, A-427, SW-620, DLD-1 (human cancer cell lines). The class given is cell-based. The conditions noted are these: DLD-1 (KRAS G13D), 24 h. The method, then: Test Example 2: SOS1 Degradation Assay
The degradation of SOS1 by the compounds was investigated on KRAS G12C mutant human non-small cell lung cancer cells NCI-H358 (ATCC or Stem Cell Bank, Chinese Academy of Sciences), KRAS G12D mutant human lung cancer cells A-427 (ATCC), KRAS G12V mutant human colorectal adenocarcinoma cells SW-620 (ATCC), and KRAS G13D mutant human colorectal adenocarcinoma epithelial cells DLD-1 (ATCC). The specific procedures were as follows:
0.95 mL of cells were seeded into each well of a 24-well cell culture plate to achieve a cell density of 5×10^5 cells/well; the cell plate was incubated in an incubator at 37° C. with 5% CO2 overnight. Then 50 μL of the compound solution after dilution was added to each of the wells with the corresponding cells, so that the final concentration of the compound was in a range of 0.03-3000 nM. The final concentration of DMSO was 0.25%.
After dosing, the cell plate was incubated in an incubator at 37° C. with 5% CO2 for 24 h. The cell culture medium in the 24-well plate was removed, and the plate was washed twice with 1×PBS. 180 μL of RIPA (strong) lysis buffer (Beyotime, P0013B) supplemented with 1 mM phenylmethylsulfonyl fluoride, a protease inhibitor mixture (Beyotime, P1008), and a protease phosphatase inhibitor mixture (Beyotime, P1045) was added to lyse adherent NCI-H358 cells at the bottom of the cell culture plate. After the plate was left to stand on ice for 30 min, the protein lysate in each well was transferred to a 1.5 mL centrifuge tube and centrifuged at 15000 g for 20 min at 4° C. […] The concentration of total protein in the cell lysate supernatant was determined using the BCA Protein Quantification Kit (Tiangen, PA115-02). […]
The concentration of total protein in the cell lysate was determined by BCA. […] After the blocking, the PVDF membrane was incubated with an SOS1 primary antibody (Abcam, ab140621) at 4° C. overnight, washed with a TBST buffer (2.4 g of Tris, 8.8 g of NaCl, 1.5 mL of Tween 20, with pH adjusted to 7.4, with the volume brought to 1 L) for 30 min (10 min/time), incubated with a secondary antibody (Abcam, ab205718) at room temperature for 2 h, washed with a TBST buffer for 30 min (10 min/time), and finally incubated with Clarity Western ECL Substrate (BIO-RAD, 170-5061) for 5 min for luminescence and color development, and a chemiluminescence imaging system (Clinx, ChemiScope 6200 Touch) was used for color development and protein mapping. […] The gray correction value for each sample was calculated by the formula: gray correction value=(gray value of target protein/gray value of corresponding internal reference)×103. Then the degradation rate was calculated by comparing the gray correction value with the gray correction value of the control group. […]
In general terms: Immunoblotting shows a protein as a band on a membrane.

Molecules are shown by their SMILES. Where only a bound is given, the exact number is not on record here.

In turn, `COc1cc2nc(C)nc(N[C@H](C)c3cc(-c4c(Cl)cccc4CN(C)C)cs3)c2cc1[C@H]1CC[C@H](C(=O)N2CCN(CC3CCC4(CC3)CCN(C(=O)c3ccc(Cl)c(N5CCC(=O)NC5=O)c3)CC4)CC2)CC1` [Example 1, 1-(2-chloro-5-(9-((4-((1R,4R)-4-(4-(((R)-1-(4-(2-chloro-6-((dimethylamino)methyl)phenyl)thien-2-yl)ethyl)amino)-7-methoxy-2-methylquinazolin-6-yl)cyclohexane-1-carbonyl)piperazin-1-yl)methyl)-3-azaspiro[5.5]undecane-3-carbonyl)phenyl)dihydropyrimidine-2,4(1H,3H)-dione] had a half-maximal degradation concentration (DC50) not above 50 nM and a maximal degradation (Dmax) of 80 to 100%.

Regarding `COc1cc2nc(C)nc(N[C@H](C)c3cc(-c4c(Cl)cccc4CN(C)C)cs3)c2cc1[C@H]1CC[C@H](C(=O)N2CCC(CCOCC3CCN(C(=O)c4ccc(Cl)c(N5CCC(=O)NC5=O)c4)CC3)CC2)CC1` [Example 5, 1-(2-chloro-5-(4-((2-(1-((1R,4R)-4-(4-(((R)-1-(4-(2-chloro-6-((dimethylamino)methyl)phenyl)thien-2-yl)ethyl)amino)-7-methoxy-2-methylquinazolin-6-yl)cyclohexane-1-carbonyl)piperidin-4-yl)ethoxy)methyl)piperidine-1-carbonyl)phenyl)dihydropyrimidine-2,4(1H,3H)-dione], the DC50 was not above 50 nM and the Dmax fell in the range of 80 to 100%.
